Source: patent publication US20140107104A1, “COMBINATION MEDICINE FOR TREATMENT OF DEPRESSION” (priority 2011, published 2014)

Legend:
[1] = test system: hippocampal dentate gyrus; assay: RT-PCR analysis of mRNA expression in hippocampal dentate gyrus after antidepressant pellet; assay type: in vivo, mice; details: subcutaneously implanted pellet, 14 days, compared to placebo pellet
Description: The method of subcutaneously implanting each pellet was as follows: a small incision about 5 mm was made in the neck skin of each mouse, a pellet was inserted through the incision to a depth of about 2 cm with tweezers for indwelling, and the skin was sutured.
Total RNA was isolated from the hippocampal dentate gyrus of the mice treated with the fluoxetine pellet or the control pellet. First strand cDNA was prepared from 1 ug of DNaseI-treated total RNA using a reverse transcriptase QuantiTect (registered trademark, Qiagen, Valencia, Calif.). Gene expression was quantified using SYBR green (2×SYBR Green PCR Master Mix; Qiagen, Valencia, Calif.) according to the manufacturer's directions. Quantitative RT-PCR was performed using LightCycler (registered trademark) 480II real-time PCR detection system (Roche, Mannheim, Germany) in the following conditions (95° C.: 5 minutes; and then 40 cycles of 95° C.: 10 seconds, 60° C.: 30 seconds, and 65° C.: 1 minute). Beta-actin was amplified in all the samples for standardization of expression data. Whether or not the DNA region of each targeted gene was amplified was confirmed by melting curve analysis after RT-PCR (95° C.: 1 minute, 55° C.: 30 seconds, 95° C.: 30 seconds). The Ct value used was the average of 2 RT-PCR results.
Experiments were conducted in the same manner as in “1.

dentate gyrus = assay: Microarray analysis of genes expressed in the dentate gyrus; assay type: in vivo, mice; details: for expression of depression-related gene group: SKF81297 3 mg/(kg day) i.p. days 10-14; for mRNA expression level Alox8: control C 2.02; for mRNA expression level Drd4: control C 29.28; for mRNA expression level Prir (second line): control C 36.03; for mRNA expression level Drd1a: control C 46.26; for mRNA expression level Prir (first line): control C 48.03; for mRNA expression level S100a4: control C 337.31; for mRNA expression level Anxa2: control C 483.27; for mRNA expression level Rgs4 (second line): control C 687.50; for mRNA expression level Htr4: control C 723.76; for mRNA expression level Furin: control C 742.58; for mRNA expression level Gfap (third line): control C 1308.81; for mRNA expression level Bdnf: control C 1312.91; for mRNA expression level Rgs4 (first line): control C 2347.43; for mRNA expression level Gfap (second line): control C 3008.11
Description: Then, microarray analysis of genes expressed in the dentate gyrus of these mice was performed.
The microarray analysis was performed as follows. Total RNA was isolated from the hippocampus of each mouse by TRIzol method (Invitrogen, Carlsbad, Calif.) and then purified using an RNeasy column (Qiagen, Valencia, Calif.). Double strand cDNA was synthesized from the total RNA, and in vitro transcription reaction was performed using biotin-labeled RNA prepared from the cDNA. The labeled RNA was hybridized with Mouse Genome 430 2.0 Array (Affymetrix, Santa Clara, Calif.) comprising specific probe sets, and washing was performed according to the manufacturer's recommendations. The hybridized probe array was stained with streptoavidin conjugate phycoerythrin, and each GeneChip was scanned using Affymetrix GeneChip scanner 3000 (GCS3000). GeneChip analysis was performed using Microarray Analysis Suite version 5.0.

dopamine D1 receptor = assay: Western blotting of dopamine D1 receptor protein in hippocampal dentate gyrus; assay type: in vivo, mice; details: fluoxetine pellet 14 days
From the text: The samples isolated from the hippocampal dentate gyrus of mice treated with a fluoxetine pellet or a control pellet were electrophoresed using acrylamide gel, and separated proteins were electrically transferred to a nitrocellulose membrane. The D1 receptor protein transferred to the membrane was immunologically detected using a D1 receptor antibody. In the immunological detection, Odyssey near-infrared fluorescent imaging system (LI-COR Biosciences, Lincoln, Nebr.) was used.

[2] = test system: dopamine D1 receptor signaling; assay: Dopamine D1 receptor signaling in slices of the hippocampal dentate gyrus (phosphorylation of DARPP-32 and ERK); assay type: cell-based, mice
Description: Harvested mouse brain was kept cool in ice-cooled and oxygenated Krebs-HCO3^− buffer, and using vibratome VT1000S (Leica Microsystems, Nussloch, Germany), 350-micrometer-thick continuous coronal slices were prepared. From the coronal slices, slices of the hippocampal dentate gyrus were cut out and used for experiments. Each slice of the hippocampal dentate gyrus was preincubated in 2 mL of Krebs-HCO3^− buffer for 60 minutes and treated with a dopamine D1 receptor agonist, namely SKF81297, and dopamine D1 receptor signaling was analyzed. As an indicator of dopamine D1 receptor signaling, phosphorylation of DARPP-32 (Thr34, PKA site) and of ERK was analyzed. The phosphorylation was analyzed by western blotting with a phosphorylation state-specific antibody.

dopamine D1 receptor-GFP = assay: Immunohistochemical analysis of dentate gyrus of dopamine D1 receptor-GFP mice; assay type: in vivo; details: fluoxetine pellet 14 days vs placebo pellet
Description: Each mouse was anesthetized with sodium pentobarbital and perfused with 4% paraformaldehyde (PFA) in 0.1 M phosphate buffered saline (PBS). The brain was removed and subjected to immersion fixation in the same fixing fluid at 4° C. for another 2 hours and […] frontal-plane sections were prepared using a cryostat (Leica). The sections were washed with tris buffered saline (pH 7.4) containing Tween 20. For immunostaining, frozen sections were incubated with the following primary antibody: rabbit anti-calbindin D28K polyclonal antibody (1:3000 dilution; SWANT) at 4° C. for 18 hours. The anti-calbindin D28K polyclonal antibody is a maturation marker for granule cells. For detection of antigen localization, the sections were incubated with Alexa Fluor (594)-conjugate goat anti-rabbit IgG (1:400 dilution; Invitrogen) at 4° C. for 2 hours. Further, for nuclear staining, the sections were stained with DAPI. Fluorescent signals were each analyzed using a confocal laser scanning microscope (LSM5 Pascal, Zeiss).

[3] = fluoxetine pellet 15 mg/(kg day)x14 days

SMILES	mRNA expression of calbindin [1]	mRNA expression of desmoplakin [1]	mRNA expression of dopamine D1 receptor [1]	mRNA expression of interleukin-1 receptor [1]	mRNA expression of tryptophan 2,3-dioxygenase [1]	expression of depression-related gene group (dentate gyrus; [3])	mRNA expression level Alox8 (dentate gyrus; same regimen)	mRNA expression level Drd4 (dentate gyrus; same regimen)	mRNA expression level Prir (second line) (dentate gyrus; same regimen)	mRNA expression level Drd1a (dentate gyrus; same regimen)	mRNA expression level Prir (first line) (dentate gyrus; same regimen)	mRNA expression level S100a4 (dentate gyrus; same regimen)	mRNA expression level Anxa2 (dentate gyrus; same regimen)	mRNA expression level Rgs4 (second line) (dentate gyrus; same regimen)	mRNA expression level Htr4 (dentate gyrus; same regimen)	mRNA expression level Furin (dentate gyrus; same regimen)	mRNA expression level Gfap (third line) (dentate gyrus; same regimen)	mRNA expression level Bdnf (dentate gyrus; same regimen)	mRNA expression level Rgs4 (first line) (dentate gyrus; same regimen)	mRNA expression level Gfap (second line) (dentate gyrus; same regimen)	also measured
CN(C)CCCN1c2ccccc2CCc2ccccc21 [imipramine]	less mRNA expression	less mRNA expression	increase in the mRNA expression	less mRNA expression	less mRNA expression	–	–	–	–	–	–	–	–	–	–	–	–	–	–	–	mRNA expression of BDNF [1]: increased
Br.Oc1cc2c(c(Cl)c1O)CCNC[C@@H]2c1ccccc1 [SKF81297, R-(+)-6-chloro-7,8-dihydroxy-1-phenyl-2,3,4,5-tetrahydro-1H-3-benzazepine hydrobromide]	–	–	–	–	–	neither the SKF81297 sole administration nor the fluoxetine sole administration affected the expression of genes	2.12	30.92	160.90	43.87	61.94	389.62	684.27	1053.99	852.76	837.03	1962.44	1516.05	2742.21	4062.15	mRNA expression level S100a10 (dentate gyrus; fluoxetine pellet 15 mg/(kg day)x14 days, SKF81297 3 mg/(kg day) i.p.x5 days, control C 461.56): 469.21; mRNA expression level Gfap (first line) (dentate gyrus; same regimen, control C […]): 140.79
CNCCC(Oc1ccc(C(F)(F)F)cc1)c1ccccc1 (stereo not shown) [fluoxetine]	less mRNA expression	less mRNA expression	increase in the mRNA expression	less mRNA expression	less mRNA expression	neither the SKF81297 sole administration nor the fluoxetine sole administration affected the expression of genes	2.11	35.57	84.69	114.21	48.69	353.74	568.07	1215.07	903.85	799.17	1757.42	1495.90	3659.58	3185.26	protein expression of dopamine D1 receptor as compared to placebo pellet (dopamine D1 receptor): 4 times; dopamine D1 receptor signaling ([2]; fluoxetine-induced dematured dentate gyrus slices): doubled; phosphorylation of ERK induced by SKF81297 ([2]; slices from mice with fluoxetine pellet 14 days vs placebo pellet): increased; phosphorylation of DARPP-32 (Thr34, PKA site) induced by SKF81297 ([2]; slices from mice with fluoxetine pellet 14 days vs placebo pellet, SKF81297 1 uM or 10 uM): increased; expression of calbindin in granule cells (dopamine D1 receptor-GFP): lowered; expression of dopamine D1 receptor-GFP in granule cells (dopamine D1 receptor-GFP): significantly increased expression
